Experimental data published in patent publication US12629359B2 (UNIVERSITA' DEGLI STUDI DI BRESCIA, priority 2020, dated 2026).
“Also recorded” adds a separate entry of the source.

Legend:
[1] = system: primary mesencephalic cultures; assay: MTT cell viability assay; type: cell-based, mouse; settings: 24 h
Experimental: The cytotoxic effect of compounds treatment was measured by evaluating mitochondrial dehydrogenase activity using the MTT salt assay.
Neuronal differentiated SK—N—SH cells were thus exposed to different concentrations of I-threo, IV-threo, I-erythro, V-threo and V-erythro as described above, and then used for the MTT cell viability assay.
Animals: C57BL/6J wt mice (C57BL/6J) (Charles River, Wilmington, MA) used in this study, were bred in our animal house facility at the Department of Molecular and Translational Medicine of University of Brescia. Animals were maintained under a 12h light-dark cycle at a room temperature (rt) of 22° C. and had ad libitum food and water. All experiments were made in accordance to Directive 2010/63/EU of the European Parliament and of the Council of 22 Sep. 2010 on the protection of animals used. All experimental and surgical procedures conformed to the National Research Guide for the Care and Use of Laboratory Animals were approved by the Animal Research Committees of the University of Brescia (Protocol Permit 719/2015-PR). All achievements were made to minimize animal suffering and to reduce the number of animals used. Primary neuronal cultures from mesencephalic tissues were dissected from C57BL/6J 13-days embryos. Briefly, after mechanical dissociation the single cells were re-suspended in Neurobasal medium containing 100 μg/ml penicillin, 100 μg/ml streptomycin, 0.5 mM glutamine and 1% B27 supplement. Cells were then centrifuged and cell count and viability assays were performed using the Trypan Blue exclusion test. Cells were seeded onto poly-D-lysine-coated glass coverslides in 24-well plates (14 μg/mL) for immunocytochemistry (100000 cells/well). Cells were maintained at 37° C. under a humidified atmosphere of 5% CO2 and […] for at least 10 days in vitro (DIV 10) prior to their use to allow their maturation. At DIV 10, cells were treated with increasing concentrations (0.01 μM-0.1 μM-1 μM-[…]) of the different compounds (I-threo, IV-threo, I-erythro, V-threo, VI-threo). Twenty-four h after the treatments, culture medium was removed and 300 μL of MTT 0.5 mg/mL diluted in culture medium was added to each well. After 90′ incubation at 37° C., the medium was removed and 250 μL aliquots of DMSO were added to each well to solubilize the formazan crystals. Absorbance was measured at 570 nm using a microplate reader. Cell viability was expressed as absorbance value.

[2] = target: T1, alpha-synuclein/Synapsin III interaction (Homo sapiens, UniProt O14994+P37840); assay: Acceptor photobleaching FRET of alpha-synuclein/Synapsin III interaction in neuronal-differentiated SK-N-SH cells; type: cell-based; settings: 10 μM, 15 min; for stimulation of alpha-synuclein/Synapsin III interaction (FRET efficiency), in words: vs basal; for % FRET efficiency change vs MPH-treated cells: vs MPH 10 μM
T1 construct: expressed in transfected cells; host or cells: neuronal-differentiated (retinoic acid) human SK-N-SH neuroblastoma cells, transient transfection with Lipofectamine 3000
Experimental: The ability of the different compound to stimulate alpha-synuclein/Synapsin III interaction was evaluated by acceptor photobleaching FRET or FLIM in neuronal-like cells. In particular, we used neuronal-differentiated SK—N—SH neuroblastoma cells transiently transfected with red fluorescent protein (RFP)-tagged human wild type alpha-synuclein and green fluorescent protein (GFP)-tagged the human 63 kDa Synapsin III isoform.
Acceptor photobleaching FRET microscopy allows an accurate evaluation of protein-protein interaction through the measurement of FRET efficiency. This parameter is indicative of the increase of donor fluorescence after complete photobleaching of the acceptor fluorescence, within a FRET pair of fluorophores (where the emission wavelength of a donor falls within the excitation wavelength of an acceptor). Since FRET efficiency is detectable only when the two fluorophores are sufficiently close to ensure that their linked proteins are interacting, the molecular proximity of these latter results strictly dependent on this parameter^36,37. […] Human neuroblastoma SK—N—SH cells were grown in complete medium comprising Dulbecco's modified Eagle's medium with 1000 mg glucose/l supplemented with 10% heat-inactivated fetal bovine serum, 100 μg/ml penicillin and 100 μg/ml streptomycin. Cells were maintained at 37° C. under a humidified atmosphere of 5% CO2 and […]. For FRET studies, SK—N—SH cells were seeded onto poli-D-lysine-coated 13 mm glass coverslips in 24-well plates (15000 cells per coverslip) and were maintained in differentiation medium for ten days by daily adding 10 μM retinoic acid to the medium. […] Fixed cells were analyzed by means of a Zeiss confocal laser microscope LSM 880 (Carl Zeiss) with the laser set on A=488-543. After identifying double positive cells three-to-six regions of interest (ROI) were analyzed for 4 series. Two images of basal condition (Pre-bleaching) were acquired before bleaching the RFP acceptor fluorophore with laser 543 set at 65% power. Then, other two images were acquired after the bleaching (Post-bleaching). The FRET efficiency (intended as the GFP recovery after RFP photobleaching) was measured by using Zen black software (Carl Zeiss). The average intensity of the background (outside the cell) was subtracted from the average intensity of the ROI and all the FRET values resulting from the different ROI were used for statistical analysis.
Human neuroblastoma SK—N—SH cells were grown in complete medium comprising Dulbecco's modified Eagle's medium with 1000 mg glucose/l supplemented with 10% heat-inactivated fetal bovine serum, 100 μg/ml penicillin and 100 μg/ml streptomycin. Cells were maintained at 37° C. under a humidified atmosphere of 5% CO2 and […]. For FRET studies, SK—N—SH cells were seeded onto poli-D-lysine-coated 13 mm glass coverslips in 24-well plates (15000 cells per coverslip) and were maintained in differentiation medium for ten days by daily adding 10 μM retinoic acid to the medium. […] Fixed cells were analyzed by means of a Zeiss confocal laser microscope LSM 880 (Carl Zeiss) with the laser set on λ=488-543. After identifying double positive cells three-to-six regions of interest (ROI) were analyzed for 4 series. Two images of basal condition (Pre-bleaching) were acquired before bleaching the RFP acceptor fluorophore with laser 543 set at 65% power. Then, other two images were acquired after the bleaching (Post-bleaching). The FRET efficiency (intended as the GFP recovery after RFP photobleaching) was measured by using Zen black software (Carl Zeiss). The average intensity of the background (outside the cell) was subtracted from the average intensity of the ROI and all the FRET values resulting from the different ROI were used for statistical analysis.

[3] = system: alpha-synuclein aggregation in SK—N—SH cells; assay: Alpha-synuclein aggregation after glucose deprivation in SK-N-SH alpha-synuclein stable clones (immunocytochemistry); type: cell-based, human; settings: for alpha-synuclein aggregates seen in images after GD: 24 h, vs non-treated (NT) cells, preliminary
Experimental: Human neuroblastoma SK—N—SH full length (fl) alpha-synuclein stable clones were seeded onto poly-D-lysine-coated glass coverslides in 24-well plates and were grown in complete medium comprising Dulbecco's modified Eagle's medium with 1000 mg glucose/l supplemented with 10% heat-inactivated fetal bovine serum, 100 μg/ml penicillin and 100 μg/ml streptomycin. Cells were maintained at 37° C. under a humidified atmosphere of 5% CO2 and […]. At 80% confluence, cells underwent glucose deprivation (GD) in order to induce alpha-synuclein aggregation (Bellucci, A.; et al. Journal of neurochemistry 2008, 106, 560-577). Briefly, GD was performed through an incubation of the cells with Hank's balanced salt solution supplemented with 2 mM glutamine and 10% heat-inactivated fetal bovine serum, for 1 h at 37° C. […] After 24 h of treatment, cells were fixed by incubating for 15 min in 4% paraformaldehyde with 4% sucrose in 1 M PBS, pH 7.4. The fixed cells were then stored in PBS-containing 0.05% sodium azide. Slides were incubated for 1 h at room temperature in blocking solution [2% w/v bovine serum albumin (BSA) plus 3% v/v normal goat serum in PBS], then overnight at 4° C. with the primary antibody (Syn211 antibody against alpha-synuclein) at the optimal working dilution. On the following day, cells were incubated for 1 h at room temperature with the Cy3-conjugated secondary antibody diluted in 0.1% Triton X-100 PBS plus BSA 1 mg/ml. Finally, cell nuclei were counterstained with Hoechst 33258 dye, and the coverslips were mounted onto glass slides using Vectashield.

[4] = system: aged human alpha-synuclein transgenic mouse model of Parkinson's disease; settings: independent of dopamine transporter inhibition; abolished by Synapsin III gene silencing; cited from earlier work
[5] = system: advanced Parkinson's disease; settings: cited from earlier work
[6] = system: alpha-synuclein aggregation in primary mesencephalic neurons; assay: Alpha-synuclein aggregation in primary mouse midbrain neurons exposed to glucose deprivation; type: cell-based; settings: I-threo, VI-threo 50 and 100 nM, MPH 100 nM

T1 sequence (O14994 whole entry, one chain of several): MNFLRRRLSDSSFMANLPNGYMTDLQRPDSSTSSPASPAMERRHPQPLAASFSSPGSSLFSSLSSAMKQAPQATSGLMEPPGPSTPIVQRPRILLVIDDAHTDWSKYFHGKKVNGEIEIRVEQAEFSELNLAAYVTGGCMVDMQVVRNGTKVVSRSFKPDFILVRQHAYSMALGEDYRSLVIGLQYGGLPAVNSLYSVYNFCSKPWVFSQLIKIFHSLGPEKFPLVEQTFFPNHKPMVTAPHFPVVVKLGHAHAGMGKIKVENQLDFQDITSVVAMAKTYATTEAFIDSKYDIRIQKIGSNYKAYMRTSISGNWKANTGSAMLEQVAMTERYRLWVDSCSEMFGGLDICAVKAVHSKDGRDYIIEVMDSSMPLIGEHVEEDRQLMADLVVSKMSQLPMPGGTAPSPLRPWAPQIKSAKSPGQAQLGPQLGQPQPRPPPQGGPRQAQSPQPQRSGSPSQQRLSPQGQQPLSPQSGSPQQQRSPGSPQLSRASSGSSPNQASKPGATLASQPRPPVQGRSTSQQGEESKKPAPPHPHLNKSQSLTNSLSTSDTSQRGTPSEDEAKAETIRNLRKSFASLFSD

Q: With `COC(=O)[C@@H](c1ccc2ccccc2c1)C1CCCCN1.Cl` (stereo partly drawn) [IV-threo] as the molecule, how does the “cell viability (MTT) at 100 μM” value ([1]; 100 μM) read?
A: the same profile of I-threo; also recorded: significant decrease in cell viability

Q: What about the “stimulation of alpha-synuclein/Synapsin III interaction (FRET efficiency), in words” value [2] of the same molecule?
A: not able to stimulate alpha-synuclein/Synapsin III interaction; also recorded: No significant increase

Q: For `COC(=O)[C@@H](Cc1ccc(C)cc1)C1CCCCN1.Cl` (stereo partly drawn) [IX-threo], which “% FRET efficiency change vs MPH-treated cells” value [2] is on record?
A: +4.6%

Q: Which results are given for `COC(=O)C(c1ccccc1)C1CCCCN1` (stereo not shown) [MPH, Methylphenidate, reference compound]?
A: alpha-synuclein aggregates seen in images after GD ([3]; 10 μM): a reduction in the formation of alpha-synuclein aggregates; EC50 ([3]; Homo sapiens, SK-N-SH cells, read-out: EC50 in reducing alpha-synuclein aggregation): 37.3 µM; Synapsin III-dependent locomotor activity [4]: over-stimulate a Synapsin III-dependent locomotor activity; freezing of gait [5]: efficiently counteract freezing of gait

Q: What does the source list for `COC(=O)[C@@H](c1ccc(-c2ccccc2)cc1)C1CCCCN1.Cl` (stereo partly drawn) [V-threo]?
A: concentration from which markedly toxic (MTT) ([1]; 0.01-100 μM tested): ≥ 100 nM; cytotoxicity (MTT), in words ([1]; low concentrations): cytotoxicity at low concentrations; stimulation of alpha-synuclein/Synapsin III interaction (FRET efficiency), in words [2]: not able to stimulate alpha-synuclein/Synapsin III interaction; also recorded: No significant increase

Q: Which “toxic effects (MTT) at the working concentrations” value ([1]; concentrations reducing aggregation or stimulating interaction) does the source give for `COC(=O)[C@@H](c1ccc(C)cc1)C1CCCCN1C.Cl` (stereo partly drawn) [VI-threo, threo methyl 2-(1-methylpiperidin-2-yl)-2-(p-tolyl)acetate hydrochloride] here?
A: did not exhibit toxic effects

Q: What about the “alpha-synuclein aggregates seen in images after GD” value ([3]; 10 μM) of the same molecule?
A: no aggregates were observed

Q: And the “formation of alpha-synuclein inclusions after GD (immunofluorescence intensity and average particle size)” value ([3]; 10 μM, 24 h after 1 h glucose deprivation, vs untreated, hydrochloride)?
A: significantly reduce the formation of alpha-synuclein inclusions; also recorded: significantly reduce alpha-synuclein aggregation in vitro

Q: What about the “% FRET efficiency change vs control untreated cells” value ([2]; neuronally differentiated SK-N-SH cells) of the same molecule?
A: +3.4%

Q: What about the “alpha-synuclein inclusion formation (total immunofluorescence intensity and particle size)” value [6] of the same molecule?
A: did not reduce alpha-synuclein aggregation

Q: Which “% FRET efficiency change vs MPH-treated cells” value [2] does the source give for `COC(=O)[C@@H](Cc1ccccc1)C1CCCCN1.Cl` (stereo partly drawn) [VII-threo, threo methyl 3-phenyl-2-(piperidin-2-yl)propanoate hydrochloride] here?
A: +4.3%
